Experimental data taken from patent US6262064A, “Octahydrobenzo[f]quinoline-based receptor agonists and antagonists” (priority 1999, dated 2001).
Read-outs that look alike come from different tables or passages of the source.

Columns and labels:
D2 dopamine receptor = biological target: T1, D2 dopamine receptor (Rattus norvegicus, UniProt P61169); assay: Dopamine D2 binding assay ([3H]Sulpiride); conditions: for dopamine receptor binding affinity / selectivity for the D2 over the D1 dopamine receptor: in words
T1 construct: rat striatal membranes; from tissue; host or cells: rat striatum membranes
Procedure: The final ligand concentration was 0.5 nM.

[1] = biological target: alpha2-adrenergic receptor; assay: Alpha2-adrenergic (non-selective) binding assay ([3H]RX 781094); set-up: species or system rat; conditions: for Ki: Table III, rat cortical membranes, read-out: α2 receptor binding affinity Ki; for α2 receptor binding affinity: in words
[2] = tested on: non-habituated male Swiss-Webster mice; assay: Locomotor dose-effect test; type: in vivo
Procedure: Compounds of this invention were tested to evaluate any depressant effect upon locomotor activity on non-habituated and cocaine-influenced mice. Locomotor activity was measured in photocell cages. A panel of infrared beams was located in the horizontal direction along all 4 sides of each activity cage. Horizontal photocell beam interruptions were recorded by a computer in 10 minute intervals.
Non-habituated male Swiss-Webster served as subjects in this experiment. The mice were injected via the intraperitoneal (IP) route with a methycellulose vehicle or a test compound, comprising trans-9 or cis-9, and placed singly in cages for 20 minutes. After this 20 minute period, mice were injected with saline IP, placed in individual photocell cages and testing for effects upon locomotor activity was begun. Eight mice were tested at each dose level. Experimental sessions were 60 minutes in duration with horizontal locomotor activity recorded in 10 minute intervals. Within each 10 minute interval, the data from all subjects are averaged.
The results of these tests were provided in FIGS. 1a, 1b, 2a and 2b, as well as in Table XI. […] Data were analyzed by a one-way ANOVA computed across doses using a long10 transformation of the horizontal activity counts. Comparisons between vehicle and each dose of the compounds tested were made by a priori contrasts. Doses of the compounds tested, which produced a statistically significant (p<0.05) decrease in locomotor activity relative to vehicle control, are denoted with an asterisk. […] The horizontal activity counts were regressed against the log10 dose of the test compound.

[3] = tested on: male Sprague-Dawley albino rats; assay: Stereotypy evaluation for dopaminergic activity; type: in vivo; conditions: IP
Procedure: Young, adult, male Sprague-Dawley (Charles River) albino rats (200-250 g) served as subjects in this experiment. The rats were injected IP with each dose of (±)-trans-9 or (±)-cis-9. Six rats were tested at each dose. Experimental sessions were 60 minutes in duration. The tests were performed and rated in accordance with the method described in Campbell et al., Psychopharmacology, 88:158 (1986). Each rat was rated with a score of 0 to 3, where 0 represents no sterotypy.

D4 (rat) receptor = biological target: T2, D4 (rat) receptor (Rattus norvegicus, UniProt P30729); assay: D2:D3:D4 competition binding assay, D4 ([3H]-spiperone); conditions: in words, Example 26
T2 construct: expressed in transfected cells
T2 sequence (P30729 1-387): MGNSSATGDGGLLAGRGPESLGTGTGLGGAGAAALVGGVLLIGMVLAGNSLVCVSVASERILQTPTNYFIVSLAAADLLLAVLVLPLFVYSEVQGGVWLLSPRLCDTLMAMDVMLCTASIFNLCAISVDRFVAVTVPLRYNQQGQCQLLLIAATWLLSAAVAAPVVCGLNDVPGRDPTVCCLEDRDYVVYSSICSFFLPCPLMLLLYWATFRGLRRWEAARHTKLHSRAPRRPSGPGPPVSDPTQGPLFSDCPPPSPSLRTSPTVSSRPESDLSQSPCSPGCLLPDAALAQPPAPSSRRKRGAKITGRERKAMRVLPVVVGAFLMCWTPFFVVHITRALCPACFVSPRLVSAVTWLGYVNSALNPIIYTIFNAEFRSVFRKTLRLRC
Procedure: (§1) To determine the D2, D3 or D4 receptor selectivity, competition binding assays were performed using membranes from fibroblast cell lines transfected with D2444 (rat), D3 (human) or D4 (rat) receptors. All cell lines were maintained in Dulbecco's modified Eagle's media (DMEM) supplemented with 10 % fetal bovine serum at 37° C. with 5% CO2. Transfected cells were maintained in DMEM containing 300 μg/mL of the antibiotic G418 (Gibco).
Nuclei were removed by centrifugation for five minutes at 600 g at 4° C., membranes were pelleted for 25 minutes at 50,000 g. Membrane protein was resuspended in homogenization buffer (0.32M sucrose, 0.0025M Tris, pH 6.9 at 20° C.) and incubated at 37° C. for 15 minutes. Membrane protein was pelleted, resuspended in water and stored at -70° C.
The compositions were tested in varying concentrations between 1 nM and 100 μM. Non-specific binding was determined using 1 μM eticlopride.
After addition of all components, the samples were incubated for 15 minutes at 37° C., terminated with 50 mM Tris-HCl (pH 7.4 at 4° C.) and collected on glass-fiber filters on a Brandel cell harvester. […] Each composition was evaluated in duplicate experiments.

D2 receptor [4] = biological target: T3, D2 receptor (Sus scrofa, UniProt F1SM69); assay: D2:D4 comparative binding assay, D2 (pig anterior pituitary)
T3 construct: pig anterior pituitary tissue; from tissue; host or cells: pig anterior pituitary
Procedure: (§2) To evaluate D2 versus D4 receptor selectivity, comparative binding assays were performed to compare the binding affinities of compositions of this invention for cloned D2 and D4 receptors.
(§3) The D2 assay was prepared from pig anterior pituitary tissue as described in Seeman et al., Molecular Pharmacology, 28:391 (1985). The D4 assay contained membranes prepared from COS-7 cells transfected with a 3.9 kb cDNA-gene fusion construct as described in H. H. M. Vantol, Nature, 350:610 (1991).
(§4) Binding assays were done using the methods described in by Seeman and Vantol. [^3 H]-spiperone (New England Nuclear, Boston, Mass.). The compositions were tested varying concentrations.
(§5) After addition of all components, the samples were incubated for 15 minutes at 37° C., terminated with 50 mM Tris-HCl (pH 7.4 at 20° C.) and collected on glass-fiber filters on a Brandel cell harvester. Radioactivity retained on the filters was counted on a Beckman LS 1701 scintillation counter and data were analyzed by non-linear least squares regression methods.

D4 receptor = biological target: T4, D4 receptor (Homo sapiens, UniProt P21917, DEL265-296); assay: D2:D4 comparative binding assay, D4 (COS-7 cells)
T4 construct: expressed in transfected cells; host or cells: COS-7 cells
Procedure: as §2, §3, §4, §5

D2 receptor [5] = biological target: T5, D2 receptor (Rattus norvegicus, UniProt P61169); assay: D2 receptor agonist evaluation (membrane binding with and without Gpp(NH)p)
T5 construct: expressed in transfected cells
Procedure: as §1
To determine whether or not compounds of this invention were D2 receptor agonists, a membrane binding assay, utilizing the D2 cell line described in Example 26, was performed in the presence and absence of the non-hydrolyzable guanine nucleotide (GTP analogue) Gpp(NH)p.

[6] = biological target: alpha1-adrenergic receptor; conditions: for Ki: read-out: α1 receptor binding affinity Ki, Table III, rat forebrain membranes
Procedure: In these assays, the binding reaction was initiated by the addition of varying concentrations of the potential binding composition and a radioligand to an appropriate tissue. The assay was then incubated to allow binding. Binding was then terminated by dilution of the assay with a cold buffer, followed by rapid vacuum filtration onto Whatman GI/C filters that were presoaked in 0.1% polyethylene imine for at least 3 hours. Radioactivity trapped onto the filters was determined and compared to control values in order to ascertain any interactions of test compounds with the binding sites. Binding affinity analyses were performed by Novascreen, Division of the Adheron Corporation, Hanover, Md.
Incubation was conducted in 50 mM TRIS-HCl (pH 7.7) at 25° C. for 60 minutes. […] The final ligand concentration was 0.5 nm.

D1 dopamine receptor = biological target: T6, D1 dopamine receptor (Rattus norvegicus, UniProt P18901); assay: Dopamine D1 binding assay ([3H]SCH 23390); conditions: Table III; rat striatal membranes; read-out: D1 receptor binding affinity Ki
T6 construct: rat striatal membranes; from tissue; host or cells: rat striatum membranes
Procedure: The final radioligand concentration was 0.5 nM.

5HT1A serotonin receptor = biological target: T7, 5HT1A serotonin receptor (Bos taurus, UniProt F6Q2H9); assay: Serotonin (5HT1A) binding assay ([3H]-8-OH-DPAT); set-up: species or system bovine
T7 construct: bovine hippocampus; from tissue; host or cells: bovine hippocampus
T7 sequence (F6Q2H9 1-422): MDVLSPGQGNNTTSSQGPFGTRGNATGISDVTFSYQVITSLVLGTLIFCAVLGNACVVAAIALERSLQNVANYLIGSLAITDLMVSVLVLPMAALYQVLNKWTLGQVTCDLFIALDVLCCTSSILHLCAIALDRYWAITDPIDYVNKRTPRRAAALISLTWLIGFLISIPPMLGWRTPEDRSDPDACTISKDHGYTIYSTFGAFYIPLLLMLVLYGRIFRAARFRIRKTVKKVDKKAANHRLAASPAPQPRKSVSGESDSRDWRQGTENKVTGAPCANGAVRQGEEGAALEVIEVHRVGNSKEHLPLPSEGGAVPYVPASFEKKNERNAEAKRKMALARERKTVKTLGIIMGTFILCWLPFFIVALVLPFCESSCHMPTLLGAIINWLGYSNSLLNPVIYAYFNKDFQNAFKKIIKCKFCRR

5HT2 serotonin receptor = biological target: T8, 5HT2 serotonin receptor (Rattus norvegicus, UniProt P14842); assay: Serotonin (5HT2) binding assay ([3H]Ketanserin); conditions: 5-HT2 receptor binding affinity Ki
T8 construct: rat cortical membranes; from tissue; host or cells: rat cortex membranes
Procedure: The final ligand concentration was 1.0 nM.

5HT1 serotonin receptor = assay: Serotonin (5HT1) binding assay
Procedure: In these assays, the binding reaction was initiated by the addition of varying concentrations of the potential binding composition and a radioligand to an appropriate tissue. The assay was then incubated to allow binding. Binding was then terminated by dilution of the assay with a cold buffer, followed by rapid vacuum filtration onto Whatman GI/C filters that were presoaked in 0.1% polyethylene imine for at least 3 hours. Radioactivity trapped onto the filters was determined and compared to control values in order to ascertain any interactions of test compounds with the binding sites.
Incubation was conducted in 50 mM TRIS-HCl (pH 7.4) at 45 minutes for 37° C. The radioligand used was [^3 H]Hydroxytryptamine binoxalate (15-30 Ci/mmol). The final ligand concentration was 3.0 nM.

T5 sequence (P61169 whole entry): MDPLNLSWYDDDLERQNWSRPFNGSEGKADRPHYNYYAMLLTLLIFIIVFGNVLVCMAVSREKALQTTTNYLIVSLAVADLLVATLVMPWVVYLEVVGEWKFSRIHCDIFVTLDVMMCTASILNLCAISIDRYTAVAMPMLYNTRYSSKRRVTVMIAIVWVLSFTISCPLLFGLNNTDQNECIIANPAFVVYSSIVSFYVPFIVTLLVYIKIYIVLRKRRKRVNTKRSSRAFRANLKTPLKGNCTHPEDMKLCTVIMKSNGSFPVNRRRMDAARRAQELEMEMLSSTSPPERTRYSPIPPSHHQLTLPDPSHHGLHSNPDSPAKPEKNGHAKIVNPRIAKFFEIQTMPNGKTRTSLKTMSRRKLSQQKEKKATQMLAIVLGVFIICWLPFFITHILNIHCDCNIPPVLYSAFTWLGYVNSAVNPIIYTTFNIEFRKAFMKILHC
T1 sequence (P61169 whole entry): as above
T4 sequence (P21917 other isoform, or with tags, fused parts or gaps DEL265-296): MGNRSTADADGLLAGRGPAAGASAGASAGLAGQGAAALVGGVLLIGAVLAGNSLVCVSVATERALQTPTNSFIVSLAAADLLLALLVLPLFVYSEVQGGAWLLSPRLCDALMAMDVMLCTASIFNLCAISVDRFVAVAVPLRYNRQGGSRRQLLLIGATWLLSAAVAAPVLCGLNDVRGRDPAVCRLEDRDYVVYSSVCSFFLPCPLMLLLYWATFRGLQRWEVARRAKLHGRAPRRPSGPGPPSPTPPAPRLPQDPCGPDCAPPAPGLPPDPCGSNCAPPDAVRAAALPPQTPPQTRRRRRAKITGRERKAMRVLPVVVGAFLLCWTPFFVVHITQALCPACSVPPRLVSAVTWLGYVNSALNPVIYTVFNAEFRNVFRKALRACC
T8 sequence (P14842 whole entry): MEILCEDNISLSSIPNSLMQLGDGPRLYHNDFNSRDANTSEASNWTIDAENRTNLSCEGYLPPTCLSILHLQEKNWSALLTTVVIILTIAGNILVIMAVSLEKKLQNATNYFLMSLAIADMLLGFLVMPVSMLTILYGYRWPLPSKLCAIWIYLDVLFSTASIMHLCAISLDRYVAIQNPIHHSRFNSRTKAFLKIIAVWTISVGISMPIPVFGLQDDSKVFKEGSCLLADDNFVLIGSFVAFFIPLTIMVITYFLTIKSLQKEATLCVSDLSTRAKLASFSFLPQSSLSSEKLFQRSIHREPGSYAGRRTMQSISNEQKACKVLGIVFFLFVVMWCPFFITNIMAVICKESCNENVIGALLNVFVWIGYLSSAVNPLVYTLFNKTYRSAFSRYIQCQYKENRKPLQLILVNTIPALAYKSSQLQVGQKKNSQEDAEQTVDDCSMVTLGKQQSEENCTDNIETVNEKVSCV
T6 sequence (P18901 whole entry): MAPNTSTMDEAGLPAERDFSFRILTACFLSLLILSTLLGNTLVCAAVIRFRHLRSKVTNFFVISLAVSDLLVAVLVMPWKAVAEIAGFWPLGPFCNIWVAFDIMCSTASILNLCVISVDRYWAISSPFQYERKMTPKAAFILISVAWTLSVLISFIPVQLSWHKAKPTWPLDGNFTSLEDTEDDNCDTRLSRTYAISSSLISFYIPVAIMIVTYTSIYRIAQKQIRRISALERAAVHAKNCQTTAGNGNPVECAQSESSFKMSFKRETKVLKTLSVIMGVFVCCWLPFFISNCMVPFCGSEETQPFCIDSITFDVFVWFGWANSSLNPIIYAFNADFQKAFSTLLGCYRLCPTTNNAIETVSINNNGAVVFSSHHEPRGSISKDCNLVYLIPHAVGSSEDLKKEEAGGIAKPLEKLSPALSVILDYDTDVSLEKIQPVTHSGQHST
T3 sequence (F1SM69 1-443): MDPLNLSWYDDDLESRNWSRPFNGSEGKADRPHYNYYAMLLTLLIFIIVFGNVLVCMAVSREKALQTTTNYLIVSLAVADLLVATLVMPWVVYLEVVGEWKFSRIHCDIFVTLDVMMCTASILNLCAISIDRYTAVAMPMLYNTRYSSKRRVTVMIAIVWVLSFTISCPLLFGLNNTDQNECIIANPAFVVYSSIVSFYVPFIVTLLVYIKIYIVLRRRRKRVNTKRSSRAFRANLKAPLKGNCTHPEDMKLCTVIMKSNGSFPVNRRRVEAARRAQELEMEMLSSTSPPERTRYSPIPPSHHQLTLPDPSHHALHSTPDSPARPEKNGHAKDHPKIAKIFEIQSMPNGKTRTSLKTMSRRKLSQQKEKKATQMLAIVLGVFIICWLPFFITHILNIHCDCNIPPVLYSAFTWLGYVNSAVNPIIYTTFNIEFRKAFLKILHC

Oc1ccc2c(c1O)CC[C@@H]1[C@H]2CCCN1CCc1ccccc1 (relative stereo) [cis-9]
Ki (D2 dopamine receptor): 0.022 µM
dopamine receptor binding affinity (D2 dopamine receptor): good dopamine receptor binding affinities
selectivity for the D2 over the D1 dopamine receptor (D2 dopamine receptor): highly selective for the D2 dopamine receptor over the D1 dopamine receptor
Ki [1]: 0.027 µM
α2 receptor binding affinity [1]: high binding affinities for the α2 receptor
deaths ([2]; IP, 10 mg/kg): Two of eight mice died
decrease in locomotor activity, overall assessment ([2]; IP, in words): much weaker than expected when compared to its dopamine D2 receptor affinity
suppression of locomotor activity ([2]; IP, in words): dose-related suppression of locomotor activity of 10 mg/kg
ED50 ([2]; Mus musculus, read-out: ED50 (dose which produced 50% maximal depressant activity), IP, horizontal locomotor activity): 2.1 mg/kg
stereotypy score ([3]; 0.0001 mg/kg): 1.0 ± 0.4
stereotypy score ([3]; 0.001 mg/kg): 0.7 ± 0.3
stereotypy score ([3]; 0.003 mg/kg): 0.5 ± 0.2
stereotypy score ([3]; 0.01 mg/kg): 0.0
stereotypy score ([3]; 0.03 mg/kg): 0.0
stereotypy score ([3]; 0.1 mg/kg): 0.0
stereotypy score ([3]; 0.3 mg/kg): 0.0
stereotypy score ([3]; 1.0 mg/kg): 0.0
stereotypy score ([3]; 3.0 mg/kg): 0.0
stereotypy score ([3]; 10.0 mg/kg): 0.0
induction of stereotypy, dopamine agonism ([3]; in words): did not induce stereotypy and therefore is not a dopamine agonist
selectivity for the D4 receptor (D4 (rat) receptor): highly selective for the D4 receptor over the D2 or D3 receptors
Ki (D2 receptor [4]): 0.122 µM
Ki (D4 receptor): 0.0089 µM
selectivity for the D4 receptor (D4 receptor; in words, Example 27): selective for the D4 receptor over the D2 or D3 receptors
Ratio of +:- Gpp(NH)p (D2 receptor [5]; Table XV): 1.84
Ki (D2 receptor [5]; Table XV, with Gpp(NH)p, read-out: D2 receptor binding Ki with Gpp(NH)p): 0.872 ± 0.61 µM
Ki (D2 receptor [5]; Table XV, without Gpp(NH)p, read-out: D2 receptor binding Ki without Gpp(NH)p): 0.473 ± 0.313 µM
D2 agonist/antagonist assessment (D2 receptor [5]; in words): appear to be an antagonist
effect of GTP on D2 receptor binding (D2 receptor [5]; in words): the addition of GTP did not significantly affect receptor binding affinity
Ki [6]: 0.19 µM

Oc1cccc2c1CC[C@@H]1[C@@H]2CCCN1CCc1ccccc1 (single isomer, unassigned) [trans-(-)-25, trans-(-)-7-hydroxy-4-phenethyl-1,2,3,4a,5,6,10b-octahydrobenzo[f]quinoline]
Ki (D1 dopamine receptor): 3.6 µM
Ki (D2 dopamine receptor): 0.0009 µM
dopamine receptor binding affinity (D2 dopamine receptor): good dopamine receptor binding affinities
selectivity for the D2 over the D1 dopamine receptor (D2 dopamine receptor): highly selective for the D2 dopamine receptor over the D1 dopamine receptor
Ki [1]: 0.0021 µM
α2 receptor binding affinity [1]: high binding affinities for the α2 receptor
Ki (5HT1A serotonin receptor; 5-HT1A receptor binding affinity Ki, Table III, bovine hippocampus): 0.011 µM
5HT1A serotonin receptor binding affinity (5HT1A serotonin receptor; in words): high binding affinities for the 5HT1A serotonin receptor
Ki (5HT2 serotonin receptor): 0.41 µM
α1 receptor binding affinity ([6]; in words): high binding affinities for the α1 receptor
Ki [6]: 0.0048 µM
5HT1 serotonin receptor binding affinity (5HT1 serotonin receptor; in words): high binding affinity for the 5HT1 serotonin receptor
Ki (5HT1 serotonin receptor; read-out: 5-HT1 receptor binding affinity Ki, Table III, rat cortical membranes): 0.24 µM
